Measured values reported in patent US20050107353A1, “Methods of treating lower urinary tract disorders using losigamone” (Dynogen Pharmaceuticals, Inc., priority 2003, published 2005).
“Also recorded” adds a separate entry of the source.

How the values were obtained:
[1] = tested on: activity dependent sodium currents in bladder DRG neurons; assay: Use-dependent effect on sodium currents in bladder DRG neurons, slow versus fast stimulation; type: cell-based, rat; conditions: 100 μM, steps from −50 to 0 mV, three neurons
Method: Labeling of bladder afferent neurons: Adult female Sprague-Dawley rats (150-300 g) were deeply anesthetized with pentobarbital anesthesia and placed on isoflurane maintenance anesthesia. A ventral midline incision was made through the abdominal skin and musculature, exposing the urinary bladder. Five injections of the fluorescent dye Di-I (5 μl each of 25 mg/ml Di-I in DMSO) or Fast Blue (4% w/v) were made into the bladder smooth muscle wall to label primary afferent fibers innervating the bladder. The area was rinsed with sterile saline to eliminate nonspecific spread of dye, and the incision was closed. Rats recovered for 5-12 days to allow for transport of fluorescent dye from distal terminals to the cell somata of dorsal root ganglion (DRG) neurons. Labeled neurons were identified in vitro using fluorescence optics. […]
Sodium currents were recorded from DRG neurons using standard electrophysiologic protocols. […] Currents were recorded using a patch-clamp amplifier and digitized at 3-10 kHz for acquisition. Neuronal input resistance and membrane capacitance were determined from the amplitude and kinetics of the current response to a voltage pulse from a holding potential of −50 mV. […] For all cell types, baseline responses were recorded for a minimum of 10 min to ensure that the kinetics of the response was stable. […]

[2] = molecular target: T1, TTX-R sodium currents in bladder afferent neurons (Rattus norvegicus, UniProt Q62968); assay: Bladder sensory neuron sodium channel current model: whole cell patch-clamp of TTX-R sodium currents; type: cell-based; conditions: 30 μM bath application, 7 minute, holding potential −70 mV, pulse to +10 mV
T1 construct: Whole cell patch-clamp recordings were obtained from dye-labeled DRG neurons; endogenous in cells; host or cells: primary dissociated L6/S1 dorsal root ganglion neurons of Sprague-Dawley rats, dye-labelled bladder afferents
Method: Labeling of bladder afferent neurons: Adult female Sprague-Dawley rats (150-300 g) were deeply anesthetized with pentobarbital anesthesia and placed on isoflurane maintenance anesthesia. A ventral midline incision was made through the abdominal skin and musculature, exposing the urinary bladder. Five injections of the fluorescent dye Di-I (5 μl each of 25 mg/ml Di-I in DMSO) or Fast Blue (4% w/v) were made into the bladder smooth muscle wall to label primary afferent fibers innervating the bladder. The area was rinsed with sterile saline to eliminate nonspecific spread of dye, and the incision was closed. Rats recovered for 5-12 days to allow for transport of fluorescent dye from distal terminals to the cell somata of dorsal root ganglion (DRG) neurons. Labeled neurons were identified in vitro using fluorescence optics.
Neuronal cultures: Di-I injected rats were euthanized with pentobarbital anesthesia. Lumbar (L6) and sacral (S1) DRG were dissected from the vertebral column and placed in Dulbecco's modified Eagles medium (DMEM) containing 0.3% collagenase B for 60 min at 37° C. The cell solution was exchanged for a 0.25% trypsin in calcium/magnesium-free Dulbecco's phosphate-buffered saline solution, and further digested for 30 min at 37° C. Following a wash in fresh DMEM, ganglia were dissociated by a series of triturations using fire-polished Pasteur pipettes. DRG cells were plated on polylysine-treated glass coverslips. Cells were plated at a density of 0.5 DRG per coverslip in 1 ml DMEM supplemented with 10% FBS, NGF, and 100 U/ml penicillin/streptomycin. All experimental procedures involving rats were conducted under a protocol approved by an Institutional Animal Care and Use Committee. Small variations in the concentrations of reagents, incubation times, etc. may occur and are expected to give similar results.
In most experiments, neurons were incubated in culture medium containing the FITC-labeled lectin BSI-B4 (IB4, […]) at 37° C. for 5 min before recording. The coverslip was washed with extracellular recording solution for 1 min before being placed in a recording chamber mounted on the stage of an inverted microscope equipped with fluorescence optics.
Electrophysiology: Electrophysiologic evaluation of neurons occurred within 4-48 h of plating. Whole cell patch-clamp recordings were obtained from dye-labeled DRG neurons. Recordings were obtained in an extracellular recording solution (pH 7.4, 295-320 mosM) consisting of (in mM) 140 NaCl, 3 KCl, 1 CaCl2, 1 MgCl2, 0.1 CdCl2, 10 HEPES, and 10 glucose. Patch-clamp electrodes were pulled from borosilicate glass and fire polished to 2-6 MOhm tip resistance. The internal pipette recording solution (pH 7.3, 290-300 mosM) consisted of (in mM) 140 CsCl, 10 NaCl, 1 EGTA, and 10 HEPES. Tetrodotoxin (TTX, 0.3 uM) was included in the extracellular solution to block TTX-sensitive sodium currents. Variations in the concentrations and types of reagents used for solutions may occur and are expected to give similar results.
Sodium currents were recorded from DRG neurons using standard electrophysiologic protocols. Neurons were typically voltage-clamped at −50 mV. Currents were recorded using a patch-clamp amplifier and digitized at 3-10 kHz for acquisition. Neuronal input resistance and membrane capacitance were determined from the amplitude and kinetics of the current response to a voltage pulse from a holding potential of −50 mV. Series resistance was compensated 75-95% for all recordings. Leak currents were cancelled online using a standard P/4 protocol. Depolarizing steps from −90, −70, or −50 mV to 0 mV were delivered every 5 or 30 sec during drug application to determine the effects of drugs on sodium currents. For all cell types, baseline responses were recorded for a minimum of 10 min to ensure that the kinetics of the response was stable. A wash out or recovery period usually followed the drug application period. […]

[3] = tested on: acetic acid-induced reduction of bladder capacity; assay: Dilute acetic acid model: bladder capacity by filling cystometry during continuous intravesical acetic acid irritation; type: in vivo, rat; conditions: intraduodenal; for effect on bladder capacity (reversal of acetic acid-induced reduction): increasing doses, rats during continuous irritation
Text: The objective of the current study was to determine the effect of TTX-R sodium channel modulators or use dependent sodium channel modulators on the ability to reverse the reduction in bladder capacity seen following continuous infusion of dilute acetic acid, a commonly used model of lower urinary tract disorders including overactive bladder.
Animal Preparation: Female rats (250-275 g BW) were anesthetized with urethane (1.2 g/kg) and a saline-filled catheter (PE-50) was inserted into either the jugular vein for intravenous (i.v.; saline vehicle) or the proximal duodenum for intraduodenal (i.d.; distilled water or 10% Tween 80 in saline as vehicle) drug administration. Via a midline lower abdominal incision, a flared-tipped PE 50 catheter was inserted into the bladder dome for bladder filling and pressure recording and secured by ligation. The abdominal cavity was moistened with saline and closed by covering with a thin plastic sheet in order to maintain access to the bladder for emptying purposes. Fine silver or stainless steel wire electrodes were inserted into the external urethral sphincter (EUS) percutaneously for electromyography (EMG).
Experimental Design: Saline was continuously infused at a rate of 0.055 ml/min via the bladder filling catheter for ≧60 minutes to obtain a baseline of lower urinary tract activity (continuous cystometry; CMG). Following the control period, a 0.25% acetic acid solution in saline was infused into the bladder at the same flow rate to induce bladder irritation. Following 30 minutes of AA infusion, 3 vehicle injections were made at 20 minute intervals to determine vehicle effects, if any. Subsequently, increasing doses (2-5) of Na^+ channel blocking compound were administered intravenously or intraduodenaly at half-log order increments at 30 or 60 minute intervals in order to construct a cumulative dose-response relationship. At the end of the control saline cystometry period, the third vehicle, and 20-50 minutes following each subsequent treatment, the infusion pump was stopped, the bladder was emptied by fluid withdrawal via the infusion catheter and a single filling cystometrogram was performed at the same flow rate in order to determine changes in bladder capacity caused by the irritation protocol and subsequent intravenous or intraduodenal drug administration.
Data were analyzed by non-parametric ANOVA for repeated measures (Friedman Test) with Dunn's Multiple Comparison test. All comparisons were made from the last vehicle measurement (AA/Veh 3) or the lowest dose of drug. P<0.050 was considered significant.

T1 sequence (Q62968 whole entry): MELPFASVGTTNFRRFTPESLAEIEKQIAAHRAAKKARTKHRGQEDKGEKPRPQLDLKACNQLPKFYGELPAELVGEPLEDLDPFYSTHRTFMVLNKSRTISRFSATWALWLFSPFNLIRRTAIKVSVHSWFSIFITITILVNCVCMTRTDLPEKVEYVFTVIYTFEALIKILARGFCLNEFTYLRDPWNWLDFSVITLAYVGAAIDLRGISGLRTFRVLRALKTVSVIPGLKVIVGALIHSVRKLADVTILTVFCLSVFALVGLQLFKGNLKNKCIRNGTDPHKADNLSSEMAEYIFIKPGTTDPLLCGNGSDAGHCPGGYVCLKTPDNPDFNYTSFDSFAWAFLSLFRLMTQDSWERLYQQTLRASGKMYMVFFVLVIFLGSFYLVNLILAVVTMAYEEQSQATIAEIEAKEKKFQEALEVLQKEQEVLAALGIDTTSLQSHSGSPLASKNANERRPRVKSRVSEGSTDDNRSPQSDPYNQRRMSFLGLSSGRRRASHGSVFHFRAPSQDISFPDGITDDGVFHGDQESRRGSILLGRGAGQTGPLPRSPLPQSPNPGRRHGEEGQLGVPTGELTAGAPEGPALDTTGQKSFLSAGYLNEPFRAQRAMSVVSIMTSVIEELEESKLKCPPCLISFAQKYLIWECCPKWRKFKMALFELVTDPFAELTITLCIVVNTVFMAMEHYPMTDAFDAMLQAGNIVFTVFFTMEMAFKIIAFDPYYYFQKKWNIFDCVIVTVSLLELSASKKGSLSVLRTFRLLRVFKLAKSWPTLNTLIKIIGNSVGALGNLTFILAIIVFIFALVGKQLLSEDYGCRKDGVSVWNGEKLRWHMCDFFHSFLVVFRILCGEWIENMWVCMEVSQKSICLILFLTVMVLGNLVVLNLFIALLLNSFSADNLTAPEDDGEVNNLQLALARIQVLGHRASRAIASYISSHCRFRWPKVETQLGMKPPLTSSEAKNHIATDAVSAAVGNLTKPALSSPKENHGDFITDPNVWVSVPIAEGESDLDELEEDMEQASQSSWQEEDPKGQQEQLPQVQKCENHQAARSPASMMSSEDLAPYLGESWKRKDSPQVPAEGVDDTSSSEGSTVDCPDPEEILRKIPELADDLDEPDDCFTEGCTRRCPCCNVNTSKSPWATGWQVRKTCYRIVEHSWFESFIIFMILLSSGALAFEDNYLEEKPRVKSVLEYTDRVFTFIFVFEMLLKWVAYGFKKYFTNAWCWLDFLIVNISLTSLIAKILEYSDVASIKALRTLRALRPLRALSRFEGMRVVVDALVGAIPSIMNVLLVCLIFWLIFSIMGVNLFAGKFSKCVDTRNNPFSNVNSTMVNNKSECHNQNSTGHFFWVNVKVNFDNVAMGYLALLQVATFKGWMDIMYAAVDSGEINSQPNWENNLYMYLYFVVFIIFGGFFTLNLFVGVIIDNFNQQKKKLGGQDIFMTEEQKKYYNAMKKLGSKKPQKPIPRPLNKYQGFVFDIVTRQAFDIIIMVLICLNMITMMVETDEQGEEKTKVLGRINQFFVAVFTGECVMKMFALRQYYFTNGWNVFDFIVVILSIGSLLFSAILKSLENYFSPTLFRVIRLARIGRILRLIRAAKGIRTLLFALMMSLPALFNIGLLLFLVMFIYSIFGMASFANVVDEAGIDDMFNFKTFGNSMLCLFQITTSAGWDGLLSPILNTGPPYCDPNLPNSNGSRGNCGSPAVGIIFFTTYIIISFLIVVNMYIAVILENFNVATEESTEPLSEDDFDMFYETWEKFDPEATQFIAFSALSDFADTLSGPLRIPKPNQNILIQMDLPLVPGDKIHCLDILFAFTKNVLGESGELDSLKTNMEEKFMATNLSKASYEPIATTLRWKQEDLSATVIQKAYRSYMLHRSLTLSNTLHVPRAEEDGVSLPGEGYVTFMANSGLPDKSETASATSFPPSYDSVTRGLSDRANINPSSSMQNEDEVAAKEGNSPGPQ

Question: With `Nc1nnc(-c2cccc(Cl)c2Cl)c(N)n1` [Lamotrigine, 6-(2,3-Dichlorophenyl)-1,2,4-triazine-3,5-diamine] as the compound, how does the “peak sodium current amplitude, fast (17 Hz) versus slow (0.2 Hz) stimulation” value [1] read?
Answer: decreased to a greater extent under fast stimulation conditions

Question: `CC1(C)O[C@@H]2[C@@H](CO[C@@]3(COS(N)(=O)=O)OC(C)(C)O[C@@H]23)O1` [Topiramate, 2,3:4,5-Bis-O-(1-methylethylidene)-1-O-sulfamoyl-beta-D-fructopyranose] was tested. Which “effect on inward TTX-R sodium current” value [2] did it give?
Answer: blocked the current

Question: And the “post-test: reversal of bladder capacity reduction” value ([3]; 100 mg/kg dose, rats)?
Answer: statistically significant reversal of bladder capacity reduction

Question: And the “effect on bladder capacity (reversal of acetic acid-induced reduction)” value [3]?
Answer: capable of partially reversing the reduction in bladder capacity caused by acetic acid in a dose-dependent fashion; also recorded: dose-dependent and statistically significant reversal

Question: And the “effect on bladder capacity (reversal of acetic acid-induced reduction)” value ([3]; listed as topiramate)?
Answer: dose-dependent, statistically significant increases in bladder capacity
